These results are taken from patent US5444056A, “Aminoalkoxyphenyl derivatives, process for their preparation and compositions containing them” (Sanofi, priority 1989, dated 1995).

What is called inhibition in vivo is the relative decrease from the control value, in per cent.

In test [1] the test system is contractile response to potassium-induced depolarization on isolated rat aorta. Nature of the test: Calcium inhibitory properties: antagonism of contractile response to potassium-induced depolarization on isolated rat aorta. On the set-up: species or system rat (male Wistar). To be noted: percent of maximal contraction before incubation, 60 min. The text has this: It is well established that the depolarization of a smooth muscle membrane by potassium makes the latter permeable to extracellular calcium and induces muscle contraction. Consequently, the measurement of inhibition of the contractile response to depolarization by potassium or the measurement of relaxation of the tonic contraction on potassium depolarization can provide an evaluation of the potency of a compound as an inhibitor of the membrane permeability to Ca^++ ions. The technique used is the following: The aorta is removed from male Wistar rats weighing about 300 g and cut into strips approximately 40 mm long and 3 mm wide. These fragments are placed in a 25 ml isolated organ bath containing modified Krebs-bicarbonate solution (112 mM NaCL; 5 mM KCl; 25 mM NaHCO3; 1 mM KH2 PO4; 1.2 mM MgSO4; 2.5 mM CaCl2; 11.5 mM glucose, made up to 1000 ml with distilled water) maintained at 37° C. and through which a stream of carbon dioxide is passed. The preparation is connected to a force microsensor and the contractile response is recorded after amplification on a recorder. A tension of 2g is applied to the preparation. This latter is maintained in the modified Krebs-bicarbonate solution for 60 minutes, and then contractions are induced by replacing the Krebsbi-carbonate solution by a Krebs-potassium solution (17 mM NaCl; 100 mM KCl; 25 mM NaHCO3; 1 mM KH2 PO4; 1.2 mM MgSO4; 2.5 mM CaCl2; 11.5 mM glucose; made up to 1000 ml with distilled water). When the contractile response of the preparation has become reproducible, a given amount of the compound of the invention is introduced into the bath. Sixty minutes later a new spasm is induced by potassium depolarization. The results obtained on the aorta under investigation are then expressed in percent of the maximal contractional effect before incubation with the test substance. As examples, the following results were obtained, the compounds of formula (1) being in the form of the free base, the hydrochloride, oxalate or fumarate.

For test [2], the system named is increase in blood pressure induced by epinephrine (anti-α effect). Description: Anti-α effect: reduction of epinephrine-induced increase in blood pressure in anesthetized atropinized dog. The test is classed as in vivo. More on the design: key: +: for a reduction <50%; ++: for a reduction ≥50%; +++: for an almost complete reduction. Here is the method:
The aim of this test is to determine the capacity of the compounds of the invention to reduce the increase in blood pressure induced by epinephrine (anti-αeffect) and the acceleration of the heart rate induced by isoprenaline (anti-βeffect) in the dog previously anesthetized with pentobarbital and atropinized. First, are determined for each dog the dose of epinephrine (between 3 and 10 μg/kg) which causes a reproducible increase in arterial blood pressure of about 133.10^2 Pa and the dose of isoprenaline (1 to 2 μg/kg) which causes a reproducible increase in the heart rate of about 70 beats/minute. The doses of epinephrine and isoprenaline thus determined are injected alternatively every ten minutes and after the two consecutive reference responses have been obtained, a quantity of the test compound is administered by the intravenous route. The percentage reduction of the hypertension caused by the test compound in comparison with the reference hypertension previously obtained (about 100 mm Hg) is recorded. In both cases, the results of the reduction in arterial pressure and heart rate are expressed as follows: […]

In test [3] the test system is acceleration of the heart rate induced by isoprenaline (anti-β effect). Nature of the test: Anti-β effect: reduction of isoprenaline-induced acceleration of the heart rate in anesthetized atropinized dog. More on the design: key to Anti-β effect: +: for a reduction <50%; ++: for a reduction ≥50%; +++: for an almost complete reduction. The test is classed as in vivo. Here is the method: The aim of this test is to determine the capacity of the compounds of the invention to reduce the increase in blood pressure induced by epinephrine (anti-αeffect) and the acceleration of the heart rate induced by isoprenaline (anti-βeffect) in the dog previously anesthetized with pentobarbital and atropinized.
First, are determined for each dog the dose of epinephrine (between 3 and 10 μg/kg) which causes a reproducible increase in arterial blood pressure of about 133.10^2 Pa and the dose of isoprenaline (1 to 2 μg/kg) which causes a reproducible increase in the heart rate of about 70 beats/minute. The doses of epinephrine and isoprenaline thus determined are injected alternatively every ten minutes and after the two consecutive reference responses have been obtained, a quantity of the test compound is administered by the intravenous route.
The percentage reduction of the acceleration of the heart rate caused by the test compound compared with the reference tachycardia previously measured (about 70 beats) is recorded.
In both cases, the results of the reduction in arterial pressure and heart rate are expressed as follows: […]

Structures can show the parent of a compound that is named as a salt. Bounds are passed on as bounds.

Consider `COc1ccc2[nH]c(S(=O)(=O)c3ccc(OCCCN(C)CCc4ccc(OC)c(OC)c4)cc3)c(C(C)C)c2c1` [Ex. 62, 2-{4-[3-(N-methyl N-3,4-dimethoxy-β-phenethylamino)propoxy]benzenesulfonyl} 3-isopropyl 5-methoxy indole hydrogen oxalate], for which the “% maximal contractional effect” value is on record as 37,1% in test [1] (10^-7 M, 0.1 µM); 48,7% in test [1] (10^-8 M, 0.01 µM); 93,7% in test [1] (10^-9 M, 0.001 µM); 90,3% in test [1] (10^-10 M, 0.0001 µM). Moreover, in test [2] (intravenous, 1 mg/kg), the Anti-α effect entry is reported as “+++”. In test [3] (Canis lupus familiaris, intravenous, 1 mg/kg), this molecule showed an inhibition in vivo at 1 mg/kg of no less than 50%.
In the case of `COc1ccc(CCN(C)CCCOc2ccc(S(=O)(=O)c3c(C(C)C)nn4c(C)cccc34)cc2)cc1OC` [Ex. 50, 3-{4-[3-(N-methyl N-3,4-dimethoxy-β-phenethylamino)propoxy]benzenesulfonyl} 2-isopropyl 7-methyl pyrazolo[1,5-a]pyridine hydrogen oxalate], the “% maximal contractional effect” value in test [1] (10^-8 M, 0.01 µM) is 29,1%; in test [1] (10^-9 M, 0.001 µM), 65,6%; in test [1] (10^-10 M, 0.0001 µM) it was 86,3%. In addition, the Anti-α effect result in test [2] (intravenous, 0,13 mg/kg) is “+++”. Moreover, the Anti-β effect result in test [3] (intravenous, 0,13 mg/kg) is given as “+++”.
`CCCCc1oc2ccc(Br)cc2c1S(=O)(=O)c1ccc(OCCCN(C)CCc2ccc(OC)c(OC)c2)cc1` [Ex. 8, 5-bromo 2-n-butyl 3-{4[3-(N-methyl N-3,4-dimethoxy-β-phenethylamino)propoxy]benzenesulfonyl}benzofuran hydrogen oxalate]: the “% maximal contractional effect” value in test [1] (10^-6 M, 1 µM) is 61,5%; in test [1] (10^-7 M, 0.1 µM), 79,4%. Further, the Anti-α effect result in test [2] (intravenous, 1,5 mg/kg) is reported as “+++”. In addition, in test [3] (intravenous, 1,5 mg/kg), the Anti-β effect result is reported as “+++”.
As to `CCCCN(CCCC)CCCOc1ccc(S(=O)(=O)c2c(C(C)C)n(C)c3cccc(C)c23)cc1.O=C(O)C(=O)O` [Ex. 66, 3-{4-[3-(di-n-butylamino)propoxy]benzenesulfonyl} 2-isopropyl 1,4-dimethyl indole hydrogen oxalate], the “% maximal contractional effect” value in test [1] (10^-7 M, 0.1 µM) is given as 7,1%; in test [1] (10^-8 M, 0.01 µM), 37,1%; in test [1] (10^-9 M, 0.001 µM), 83,1%. Also, the Anti-α effect result in test [2] (intravenous, 0,05 mg/kg) is given as “+++”. In test [3] (intravenous, 0,05 mg/kg), the Anti-β effect entry is “+++”.
Consider `COc1ccc(CCN(C)CCCOc2ccc(S(=O)(=O)c3c(C(C)C)c4cccc(C)c4n3C)cc2)cc1OC` [Ex. 55, 2-{4-[3-(N-methyl N-3,4-dimethoxy-β-phenethylamino)propoxy]benzenesulfonyl} 3-isopropyl 1,7-dimethyl indole hydrogen oxalate], for which the “% maximal contractional effect” value in test [1] (10^-7 M, 0.1 µM) is recorded as 45,8%; in test [1] (10^-8 M, 0.01 µM), 56,4%; in test [1] (10^-9 M, 0.001 µM), 79%; in test [1] (10^-10 M, 0.0001 µM), 85,7%. Besides, the Anti-α effect result in test [2] (intravenous, 0,07 mg/kg) was “+++”. Besides, the Anti-β effect result in test [3] (intravenous, 0,07 mg/kg) is “+++”.
Turning to `COc1ccc(CCN(C)CCCOc2ccc(S(=O)(=O)c3c(C(C)C)cn4cccc(C)c34)cc2)cc1OC` [Ex. 15, 2-isopropyl 8-methyl 1-{4-[3-(N-methyl N-3,4-dimethoxy-β-phenethylamino)propoxy]benzenesulfonyl}indolizine hydrogen oxalate], the “% maximal contractional effect” value is 11,1% in test [1] (10^-8 M, 0.01 µM); 41,0% in test [1] (10^-9 M, 0.001 µM); 85,2% in test [1] (10^-10 M, 0.0001 µM). For the same molecule, the Anti-α effect result in test [2] (intravenous, 0,013 mg/kg) is on record as “++ (for a reduction ≥50%)”. In test [3] (Canis lupus familiaris, intravenous, 0,013 mg/kg), this molecule came in with an inhibition in vivo at 0.013 mg/kg of less than 50%.
Turning to `COc1ccc(CCN(C)CCCOc2ccc(S(=O)(=O)c3c(C(C)C)n(C)c4cccc(C)c34)cc2)cc1OC` [Ex. 65, 3-{4-[3-(N-methyl N-3,4-dimethoxy-β-phenethylamino)propoxy]benzenesulfonyl} 2-isopropyl 1,4-dimethyl indole hydrogen oxalate], the “% maximal contractional effect” value in test [1] (10^-7 M, 0.1 µM) was 14,3%; in test [1] (10^-8 M, 0.01 µM) it was 29,9%; in test [1] (10^-9 M, 0.001 µM) it was 76,1%; in test [1] (10^-10 M, 0.0001 µM), 83,5%. In addition, the Anti-α effect entry in test [2] (intravenous, 0,1 mg/kg) is “+++”. Also, in test [3] (intravenous, 0,1 mg/kg), the Anti-β effect result is listed as “+++”.
Regarding `COc1ccc(CCN(C)CCCOc2ccc(S(=O)(=O)c3c(C(C)C)cn4ccccc34)cc2)cc1OC` [C, reference compound], the “% maximal contractional effect” value is on record as 40,1% in test [1] (10^-8 M, 0.01 µM) and 81,7% in test [1] (10^-9 M, 0.001 µM). Further, the Anti-α effect entry in test [2] (intravenous, 0,1 mg/kg) is listed as “+++”. In addition, the Anti-β effect entry in test [3] (intravenous, 0,1 mg/kg) is listed as “+++”.
